These results are taken from PubChem BioAssay (NCI).

Test systems include 786-0 renal; CCRF-CEM leukemia; HL-60(TB) leukemia; MALME-3M melanoma; MOLT-4 leukemia; SK-MEL-28 melanoma; SW-620 colon; DU-145 prostate; SR leukemia; T-47D breast.
What all share (experiment): inhibition of tumour cell growth, NCI panel, 48 h

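Dose response: 5 concentrations. Exposure: 48 h. Format: 96-well plates. Endpoint: linear interpolation; highest concentration if not reached. At the TGI there is no net growth.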

Turning to `COc1ccc(-c2c(C#N)c(-c3ccccc3)n(NS(=O)(=O)c3ccccc3)c(=O)c2C#N)cc1`, the TGI was more than 100 µM in the experiment with 786-0 renal; more than 100 µM with CCRF-CEM leukemia; more than 100 µM with HL-60(TB) leukemia; more than 100 µM with MALME-3M melanoma; 91.2 µM with MOLT-4 leukemia; more than 100 µM in the experiment on SK-MEL-28 melanoma. This compound displayed a TGI in the experiment on SW-620 colon of more than 100 µM.
In the case of `CCOP(=O)(OCC)C(Nc1ccc(F)cc1)c1cccc([N+](=O)[O-])c1` (stereo not drawn), the TGI in the experiment on CCRF-CEM leukemia, in the experiment with DU-145 prostate, in the experiment with HL-60(TB) leukemia, with MALME-3M melanoma, in the experiment with MOLT-4 leukemia and with SK-MEL-28 melanoma was more than 100 µM throughout. For the same compound, the TGI in the experiment on SR leukemia and in the experiment with SW-620 colon was more than 100 µM each time.
`CC[N+](C)(CC)CCN1C(=O)c2ccccc2S1(=O)=O`: the TGI in the experiment on 786-0 renal, in the experiment on CCRF-CEM leukemia, in the experiment on DU-145 prostate, with HL-60(TB) leukemia, in the experiment on MALME-3M melanoma and in the experiment on MOLT-4 leukemia was more than 100 µM throughout. The TGI in the experiment with SK-MEL-28 melanoma, in the experiment with SW-620 colon and with T-47D breast was more than 100 µM each time.
On to `C=C1C[C@]23C[C@@]1(O)CC[C@H]2[C@@]12C=C[C@H](O)[C@@](C)(C(=O)O1)[C@H]2[C@@H]3C(=O)O`, for which the TGI with 786-0 renal, with CCRF-CEM leukemia, in the experiment on HL-60(TB) leukemia, in the experiment on MALME-3M melanoma, in the experiment with MOLT-4 leukemia and in the experiment with SK-MEL-28 melanoma was more than 100 µM in each case. Besides, the TGI in the experiment with SR leukemia and in the experiment with SW-620 colon was more than 100 µM throughout.
For the compound `NC(=O)CC(Nc1ncc2c(n1)-c1ccccc1OC2)C(=O)O` (stereo not drawn), the TGI in the experiment with 786-0 renal is more than 100 µM; in the experiment with CCRF-CEM leukemia, more than 100 µM; in the experiment on DU-145 prostate, more than 100 µM; in the experiment on HL-60(TB) leukemia, 36.8 µM; with MALME-3M melanoma, more than 100 µM; with MOLT-4 leukemia, more than 100 µM. Besides, the TGI in the experiment with SK-MEL-28 melanoma, in the experiment with SR leukemia and in the experiment with SW-620 colon was more than 100 µM in each case.
For the compound `CCCCN(c1ccccc1)c1ncnc2c1cnn2C`, the TGI was more than 100 µM in the experiment on 786-0 renal; 49.6 µM in the experiment on CCRF-CEM leukemia; more than 100 µM in the experiment on DU-145 prostate; 47.6 µM with HL-60(TB) leukemia; 77.7 µM in the experiment with MALME-3M melanoma; 40.8 µM in the experiment with MOLT-4 leukemia. Besides, the TGI was more than 100 µM with SK-MEL-28 melanoma, more than 100 µM with SW-620 colon and 99.1 µM in the experiment on T-47D breast.
In the case of `CC(C)n1c(=O)n(-c2ccccc2)n(C(C)(C)C)c1=O`, the TGI in the experiment with 786-0 renal, in the experiment with CCRF-CEM leukemia, in the experiment with HL-60(TB) leukemia, with MALME-3M melanoma, in the experiment on MOLT-4 leukemia and in the experiment on SK-MEL-28 melanoma was more than 100 µM in each case. The TGI with SR leukemia and with SW-620 colon was more than 100 µM each time.
Turning to `NC(CCCCNC(=O)OCc1ccccc1)C(=O)NC(CCCCNC(=O)OCc1ccccc1)C(=O)ON1C(=O)CCC1=O` (stereo not drawn), the TGI in the experiment with 786-0 renal, with CCRF-CEM leukemia, in the experiment on HL-60(TB) leukemia, with MALME-3M melanoma, with MOLT-4 leukemia and in the experiment with SK-MEL-28 melanoma was more than 100 µM each time. The TGI with SR leukemia, in the experiment with SW-620 colon and in the experiment with T-47D breast was more than 100 µM each time.
In the case of `CCOC(=O)c1cn(-c2ccc(Cl)cc2)c(=O)n2c1nc1ccccc12`, the TGI with 786-0 renal, in the experiment on CCRF-CEM leukemia, in the experiment on DU-145 prostate, in the experiment on MOLT-4 leukemia, in the experiment on SK-MEL-28 melanoma and in the experiment with SR leukemia was more than 100 µM throughout. Moreover, the TGI in the experiment on SW-620 colon and in the experiment on T-47D breast was more than 100 µM throughout.
As to `COc1cc(C2C3=C(COC3=O)OC(C)(C)Oc3cc4c(cc32)OCO4)cc(OC)c1OC` (stereo not drawn), the TGI in the experiment on HL-60(TB) leukemia was 1.26 µM; in the experiment on MALME-3M melanoma, more than 100 µM; with MOLT-4 leukemia, more than 100 µM; with SK-MEL-28 melanoma, more than 100 µM; in the experiment with SW-620 colon it was more than 100 µM.
Turning to `N#Cc1c2c(c(N3CCOCC3)n3c1nc1ccccc13)CCCC2`, the TGI in the experiment with 786-0 renal is 41.3 µM; with CCRF-CEM leukemia it was 8.48 µM; in the experiment on DU-145 prostate it was 37.2 µM; with HL-60(TB) leukemia it was 35.5 µM; in the experiment with MALME-3M melanoma it was 34 µM; in the experiment on MOLT-4 leukemia, 41.5 µM. Moreover, the TGI in the experiment on SK-MEL-28 melanoma was found to be 49.3 µM; in the experiment on SW-620 colon, 29 µM; with T-47D breast, 41.5 µM.
On to `COS(=O)c1cc(Cl)cc(Cl)c1O` (stereo not drawn), for which the TGI in the experiment with CCRF-CEM leukemia, in the experiment with HL-60(TB) leukemia, in the experiment with MALME-3M melanoma, in the experiment with MOLT-4 leukemia, with SK-MEL-28 melanoma and in the experiment with SR leukemia was more than 100 µM in each case.
Take `CSc1nncc(-c2cc3c(c(SC)n2)CCC3)n1`: the TGI in the experiment with 786-0 renal, with CCRF-CEM leukemia, in the experiment with DU-145 prostate, in the experiment on HL-60(TB) leukemia, with SK-MEL-28 melanoma and in the experiment on SW-620 colon was more than 100 µM in each case.
For the compound `CCOC(=O)C(Cc1ccccc1)(Cc1ccc(O)cn1)NC(=O)c1ccccc1` (stereo not drawn), the TGI with 786-0 renal was 82.6 µM; with CCRF-CEM leukemia, more than 100 µM; with DU-145 prostate, more than 100 µM; in the experiment on HL-60(TB) leukemia it was 43.8 µM; in the experiment on MALME-3M melanoma it was 48.8 µM; with MOLT-4 leukemia, more than 100 µM. Besides, the TGI in the experiment on SK-MEL-28 melanoma, in the experiment with SR leukemia and in the experiment with SW-620 colon was more than 100 µM throughout.
Take `CCOC(=O)C(C(=O)Cc1ccccc1)c1ccccc1` (stereo not drawn): the TGI in the experiment with 786-0 renal, in the experiment on CCRF-CEM leukemia, in the experiment on HL-60(TB) leukemia, with MALME-3M melanoma, with MOLT-4 leukemia and in the experiment on SK-MEL-28 melanoma was more than 100 µM in each case. Besides, the TGI with SR leukemia and in the experiment with SW-620 colon was more than 100 µM in each case.
